# Experimental data from patent US20030204063A1, “Modified biological peptides with increased potency” (priority 2003, published 2003).
# Test system: CD1 mice
# Assay: Oral Glucose Tolerance Test (OGTT)
# Assay type: in vivo
# Conditions: for integrated increase in blood glucose (area under the curve of delta blood glucose) over 120 min following glucose administration: fasted female CD1 mice, mean±SEM
# Experimental: Oral Glucose Tolerance Test (OGTT)
# Six-week old female CD1 mice (Charles River) were fasted for at least 16 hours. Mice were given 1.5 mg of glucose per gram of body weight orally in water through a gastric savage tube at t=o min and blood was collected from a tail vein at t=0, 10, 20, 30, 60, 90 and 120 min for measurement of blood glucose using a glucose meter (Lifescan). Peptides or vehicle were injected subcutaneously 5 min prior to the glucose administration. Data were expressed as the area under the curve, calculated from the change (delta) in blood glucose for each time, using the trapezoidal rule. Therefore, the data represent the integrated increase in blood glucose over a 120 min period following glucose administration. Data presented are the mean±SEM of 4 to 11 animals per group.
# All peptides, including wild-type GLP-1 (7-37), were tested in the OGTT test at 3 different concentrations: 1, 5 and 10 ug per mouse. In a first set of experiments (study A), peptide 3 was tested in comparison with vehicle and hGLP-1(7-37). In a second set of experiments (study B), peptides 1 and 2 were tested in comparison with vehicle and hGLP-1 (7-37).
# [1] = studies A and B, 1, 5 and 10 ug per mouse subcutaneously
substance,measurement,setting,value
"hGLP(7-37) (HAEGTFTSDVSSYLEGQAAKEFIAWLVKGRG; Glucagon-like peptide 1; UniProt P01275 98-128, looked up, fragment) [wt GLP-1, wild type human glucagon-like peptide 1 (7-37), comparator in the OGTT, reference compound]",ability to completely suppress the glucose response (in words),[1],not able to completely suppress the glucose response at any dose
same,effect on the glucose response (in words),[1],dose-related decrease in the glucose response
(Hexanoyl-trans-3-His^7)-hGLP-1 (7-37) [peptide 3],integrated increase in blood glucose (area under the curve of delta blood glucose) over 120 min following glucose administration,"study A, 10 ug per mouse subcutaneously 5 min prior to oral glucose 1.5 mg/g",9±26 mM×120 min
"((+,−)-cis-2-Ethylcyclopropylacetic acid-His^7)-hGLP-1 (7-37) [peptide 2]",integrated increase in blood glucose (area under the curve of delta blood glucose) over 120 min following glucose administration,"study B, 5 ug per mouse subcutaneously 5 min prior to oral glucose 1.5 mg/g",−17±67 mM×120 min
same,integrated increase in blood glucose (area under the curve of delta blood glucose) over 120 min following glucose administration,"study B, 10 ug per mouse subcutaneously 5 min prior to oral glucose 1.5 mg/g",61±64 mM×120 min
same,biological potency compared with wild type GLP-1 (7-37) (in words),"study B, OGTT, subcutaneous",marked increased biological potency
